Source: patent publication US12195427B2, “MASP-2 inhibitors and methods of use” (priority 2018, dated 2025)

Biological target: MASP-2 CCP2-SP (Homo sapiens (Human), UniProt O00187)
Assay: MASP-2 co-crystallization, X-ray crystallography and structure analysis (H-bonds, van der Waals contacts);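 for Ligand-pharmacophore element distance, pharmacophore element C2: distance from averaged pharmacophore element to bound ligand; missing value means element absent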;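 for Ligand-pharmacophore element distance, pharmacophore element C3: distance from averaged pharmacophore element to bound ligand; missing value means element absent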;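 for Ligand-pharmacophore element distance, pharmacophore element C4: distance from averaged pharmacophore element to bound ligand; missing value means element absent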;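 for Ligand-pharmacophore element distance, pharmacophore element C5: distance from averaged pharmacophore element to bound ligand; missing value means element absent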
Design: van der Waals contact distance, MASP-2 HIS 483 atom CD2 / van der Waals contact distance, MASP-2 HIS 483 atom NE2 / van der Waals contact distance, SER 654 C to compound atom / van der Waals contact distance, SER 654 O to compound atom / van der Waals contact distance, TRP 655 C to compound atom / van der Waals contact distance, MASP-2 GLY 528 atom CA / van der Waals contact distance TRP 655 atom CZ3 / van der Waals contact distance TRP 655 atom N / van der Waals contact distance TRP 655 atom CE3 / van der Waals contact distance GLY 656 atom C / van der Waals contact distance GLY 656 atom CA / van der Waals contact distance GLY 656 atom O / van der Waals contact distance, MASP-2 TYR 607 atom CD1 / van der Waals contact distance, MASP-2 PRO 606 atom O / d(C3,CA1) / d(CA1,N1)2 / d(H4,O1) / d(H4,O2) / d(O1,O2) / d(CA1,O2) / d(CA6,O1) / d(CA6,O2) / d(CA1,C5) / d(O2,H3) / d(N2,C2) / d(CA5,N2) / d(N2,C4) / d(N2,C6) / d(N2,CA3) / d(N2,O3) / d(O4,H2): unit not given beside the values
Settings: for H-bond distance to MASP-2 GLY 656 atom N: GLY 656 N; for H-bond distance to MASP-2 GLY 656 atom O: GLY 656 O; for van der Waals contact distance, MASP-2 HIS 483 atom CD2 / van der Waals contact distance, MASP-2 HIS 483 atom NE2: Table A2-1; for Ligand-pharmacophore element distance, pharmacophore element C2 / Ligand-pharmacophore element distance, pharmacophore element C3 / Ligand-pharmacophore element distance, pharmacophore element C4 / Ligand-pharmacophore element distance, pharmacophore element C5 / Ligand-pharmacophore element distance, pharmacophore element C6 / Ligand-pharmacophore element distance, pharmacophore element C7 / Ligand-pharmacophore element distance, pharmacophore element CA1 / Ligand-pharmacophore element distance, pharmacophore element CA2 / Ligand-pharmacophore element distance, pharmacophore element CA3 / Ligand-pharmacophore element distance, pharmacophore element CA4 / Ligand-pharmacophore element distance, pharmacophore element CA5 / Ligand-pharmacophore element distance, pharmacophore element CA6: Table A4-1
Method in brief: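 Contacts and H-bonds come from partially refined soaked-crystal structures of recombinant human CCP2-SP made in E. coli, solved by molecular replacement against 1Q3X fragments. Where several ligand poses appeared, only one was analysed; listed nonbonded contacts may include possible H-bond pairings.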

[1] = Table A2-9 second part, ARG 630, AA atoms N, NE, NH1
[2] = Table A5-1 pharmacophore: distance between elements, S2/S1 region
[3] = Table A5-2 pharmacophore distance, S3/S4 region
[4] = Table A7-1, between pharmacophore elements of the bound compound
[5] = Table A7-2, between pharmacophore elements of the bound compound
[6] = Table A8-6, nearest protein atom in cell to the left

MASP-2 CCP2-SP, sequence (O00187 445-686): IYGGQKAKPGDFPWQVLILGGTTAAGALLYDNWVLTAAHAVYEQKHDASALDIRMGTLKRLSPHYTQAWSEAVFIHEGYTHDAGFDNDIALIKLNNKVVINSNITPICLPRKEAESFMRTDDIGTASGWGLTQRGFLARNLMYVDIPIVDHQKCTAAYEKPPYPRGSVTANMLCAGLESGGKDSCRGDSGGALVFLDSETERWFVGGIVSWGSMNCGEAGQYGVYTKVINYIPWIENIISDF
MASP-2 CCP2-SP, sequence (O00187 364-432 partner): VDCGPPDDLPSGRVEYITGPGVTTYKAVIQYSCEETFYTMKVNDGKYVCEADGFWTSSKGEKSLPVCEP

C[C@H](NC(=O)[C@H]1C[C@@H](c2ccccc2)CCN1)C(=O)NCc1cnc2[nH]cc(Cl)c2c1 [compound 1433, (2R,4S)—N—((S)-1-(((3-Chloro-1H-pyrrolo[2,3-b]pyridin-5-yl)methyl)amino)-1-oxopropan-2-yl)-4-phenylpiperidine-2-carboxamide]
H-bond distance to MASP-2 GLY 656 atom N (Table A1 (H-Bonds)): 3.13 | H-bond distance to MASP-2 GLY 656 atom O (Table A1 (H-Bonds)): 2.75 | H-bond distance to MASP-2 SER 654 atom O (Table A1 (H-Bonds), SER 654 O): 2.89 | van der Waals contact distance, MASP-2 HIS 483 atom CD2: 3.73 | van der Waals contact distance, MASP-2 HIS 483 atom NE2: 3.76 | van der Waals contact distance, MASP-2 PHE 529 atom CE1 (Table A2-3): 3.77 | van der Waals contact distance, MASP-2 PHE 529 atom CE2 (Table A2-3): 3.82 | van der Waals contact distance, MASP-2 amino acid atom to compound atom (Table A2-5: TYR 607 (CE1, CE2, OH), PRO 608 (CD, CG), SER 611 (CA)): 3.73 | van der Waals contact distance, MASP-2 amino acid atom to compound atom [1]: 3.49 | van der Waals contact distance, VAL 653 CG1 to compound atom (Table A2-11): 3.71 | van der Waals contact distance TRP 655 atom CE3 (Table A2-13, MASP-2 TRP 655 CE3, compound atom in line below): 3.59 | van der Waals contact distance TRP 655 atom CZ3 (Table A2-13, MASP-2 TRP 655 CZ3): 3.73 | van der Waals contact distance TRP 655 atom N (Table A2-13, MASP-2 TRP 655 N): 3.68 | Ligand-pharmacophore element distance, pharmacophore element C2: 0.26 | Ligand-pharmacophore element distance, pharmacophore element C3: 0 | Ligand-pharmacophore element distance, pharmacophore element C4: 0 | Ligand-pharmacophore element distance, pharmacophore element C5: 0.2 | Ligand-pharmacophore element distance, pharmacophore element C6: 0 | Ligand-pharmacophore element distance, pharmacophore element C7: 0 | Ligand-pharmacophore element distance, pharmacophore element CA1: 0.98 | Ligand-pharmacophore element distance, pharmacophore element CA2: 0.18 | Ligand-pharmacophore element distance, pharmacophore element CA3: 0 | Ligand-pharmacophore element distance, pharmacophore element CA4: 0 | Ligand-pharmacophore element distance, pharmacophore element CA5: 0 | Ligand-pharmacophore element distance, pharmacophore element CA6: 0 | d(CA1,C5) [2]: 3.47 | d(CA1,O1) [2]: 5.49 | d(CA1,O2) [2]: 4.76 | d(CA1,O4) [2]: 1.77 | d(H4,O1) [2]: 3.16 | d(H4,O2) [2]: 3.59 | d(O1,O2) [2]: 3.46 | d(N2,C2) [3]: 1.51 | d(N2,CA2) [3]: 5.79 | d(O2,H3) [3]: 2.89 | d(O2,N2) [3]: 2.65 | a(C5, CA1, O1) (Table A6-1 pharmacophore angle): 151.25 | a(CA1, O1, O2) (Table A6-1 pharmacophore angle): 97.80 | a(O1, CA1, O4) (Table A6-1 pharmacophore angle): 65.77 | a(O1, O2, H4) (Table A6-1 pharmacophore angle): 118.66 | a(O1, O2, H3) (Table A6-2 pharmacophore angle): 135.90 | a(O1, O2, N2) (Table A6-2 pharmacophore angle): 141.60 | a(O2, N2, C2) (Table A6-2 pharmacophore angle): 129.89 | a(O2, N2, CA2) (Table A6-2 pharmacophore angle): 155.75 | Pharmacophore torsion angle a(C5, CA1, O1, H4) [4]: 6.40 | Pharmacophore torsion angle a(H4, O1, O2, H3) [4]: 109.26 | Pharmacophore torsion angle a(H4, O1, O2, N2) [4]: −171.69 | Pharmacophore torsion angle a(O1, H4, O2, CA1) [4]: −96.26 | Pharmacophore torsion angle a(O1, O2, N2, C2) [4]: 118.46 | Pharmacophore torsion angle a(O1, O2, N2, CA2) [5]: 127.94

C[C@H](NC(=O)[C@H]1Cc2c([nH]c3ccccc23)CN1)C(=O)NCc1ccc(C(=N)N)cc1.Cl.Cl [1097_1]
Ligand-pharmacophore element distance, pharmacophore element C2: 0.69 | Ligand-pharmacophore element distance, pharmacophore element C3: 0 | Ligand-pharmacophore element distance, pharmacophore element C4: 0 | Ligand-pharmacophore element distance, pharmacophore element C5: 0 | Ligand-pharmacophore element distance, pharmacophore element C6: 0 | Ligand-pharmacophore element distance, pharmacophore element C7: 0 | Ligand-pharmacophore element distance, pharmacophore element CA1: 0.29 | Ligand-pharmacophore element distance, pharmacophore element CA2: 0 | Ligand-pharmacophore element distance, pharmacophore element CA3: 0 | Ligand-pharmacophore element distance, pharmacophore element CA4: 0 | Ligand-pharmacophore element distance, pharmacophore element CA5: 0.98 | Ligand-pharmacophore element distance, pharmacophore element CA6: 0 | d(CA1,N1) [2]: 3.53 | d(CA1,O1) [2]: 4.28 | d(CA1,O2) [2]: 4.28 | d(H4,O1) [2]: 3.88 | d(H4,O2) [2]: 3.35 | d(O1,O2) [2]: 3.32 | d(CA5,N2) [3]: 4.50 | d(N2,C2) [3]: 1.42 | d(O2,H3) [3]: 4.58 | d(O2,N2) [3]: 2.81 | a(CA1, O1, O2) (Table A6-1 pharmacophore angle): 112.80 | a(O1, O2, H4) (Table A6-1 pharmacophore angle): 125.81 | A(N1, CA1, O1) a) (Table A6-1 pharmacophore angle, all compounds with protonatable center N1 except Methyl-amino-pyridine): 162.99 | a(O1, O2, H3) (Table A6-2 pharmacophore angle): 152.91 | a(O1, O2, N2) (Table A6-2 pharmacophore angle): 134.93 | a(O2, N2, C2) (Table A6-2 pharmacophore angle): 125.76 | Pharmacophore torsion angle a(H4, O1, O2, H3) [4]: 86.65 | Pharmacophore torsion angle a(H4, O1, O2, N2) [4]: 121.05 | Pharmacophore torsion angle a(N1, CA1, O2, H4) [4]: −97.71 | Pharmacophore torsion angle a(O1, H4, O2, CA1) [4]: −66.34 | Pharmacophore torsion angle a(O1, O2, N2, C2) [4]: 136.92 | Pharmacophore torsion angle a(O1, O2, N2, CA5) [5]: 148.15 | Pharmacophore protein distance to MET_658 (first MET_658 column) (Table A8-6, 6th residue column, nearest protein atom in cell to the left): 2.40 | Pharmacophore protein distance to MET_658 (second MET_658 column) (Table A8-6, 9th residue column, nearest protein atom in cell to the left): 3.49 | Pharmacophore protein distance to GLY_528 [6]: 3.46 | Pharmacophore protein distance to PHE_529 [6]: 2.89 | Pharmacophore protein distance to PRO_608 [6]: 3.89 | Pharmacophore protein distance to SER_611 [6]: 3.04 | Pharmacophore protein distance to TRP_655 (Table A8-6, pharmacophore elements C6, CA3, O3, H1, nearest protein atom in cell to the left): 3.24

C[C@H](NC(=O)[C@H]1C[C@H](Cc2ccccc2)CN1)C(=O)NCc1ccc(C(=N)N)cc1 [compound 1306, (2R,4S)-4-Benzyl-N—((S)-1-((4-carbamimidoylbenzyl)amino)-1-oxopropan-2-yl)pyrrolidine-2-carboxamide]
H-bond distance to MASP-2 ASP 627 atom OD2 (Table A1 (H-Bonds), ASP 627 OD2): 2.6 | H-bond distance to MASP-2 GLY 656 atom N (Table A1 (H-Bonds)): 3.05 | H-bond distance to MASP-2 GLY 656 atom O (Table A1 (H-Bonds)): 2.69 | H-bond distance to MASP-2 SER 628 atom O (Table A1 (H-Bonds), SER 628 O): 2.24 | H-bond distance to MASP-2 SER 657 atom O (Table A1 (H-Bonds), SER 657 O): 2.87 | van der Waals contact distance, MASP-2 HIS 483 atom CD2: 3.47 | van der Waals contact distance, MASP-2 HIS 483 atom NE2: 3.32 | van der Waals contact distance, MASP-2 PHE 529 atom CZ (Table A2-3): 3.63 | van der Waals contact distance, MASP-2 TYR 607 atom CD1 (Table A2-4): 3.85 | van der Waals contact distance, MASP-2 amino acid atom to compound atom [1]: 3.76 | van der Waals contact distance GLY 656 atom C (Table A2-13, MASP-2 GLY 656 C): 3.54 | van der Waals contact distance GLY 656 atom CA (Table A2-13, MASP-2 GLY 656 CA): 3.61
